Test results: patent US12195476B2, “Synthesis method of furoimidazopyridine compound, crystal form of furoimidazopyridine compound, and crystal form of salt thereof” (HANGZHOU HIGHLIGHTLL PHARMACEUTICAL CO., LTD, priority 2019, dated 2025)
≈ marks a conversion by molar mass, not a printed value. Where a name gives a salt, the structure may show the parent alone. Read-outs that look alike come from different tables or passages of the source. Blank lines part the entries; values can stand above or below the molecule they belong to.

How the values were obtained:
Assay type in all cases: physicochemical
[1] = DSC test of salt crystal forms (thermostability); details: single and higher melting points, result in words
Procedure: (§1) DSC, TGA and DVS tests were conducted for crystal form A of a hydrochloride of a compound of formula I, crystal form B of a sulfate of a compound of formula I, crystal form C of a hydrobromide of a compound of formula I and crystal form D of a phosphate of a compound of formula I.

[2] = Dynamic vapor sorption (DVS) hygroscopicity test; details: for Hygroscopicity: weight gain by moisture absorption: 0% RH-95% RH, 25° C.; for change of crystal form before and after the DVS test: result in words
Procedure: as §1

[3] = Solubility test in water, SGF, FaSSIF and FeSSIF (37° C., HPLC); details: for difference in the equilibrium solubilities (24 h) between crystal form 1 and crystal form D: FaSSIF and FeSSIF, result in words; for Solubility (based on a compound of formula I) / solubility at 30 min / solubility at 2 h / solubility at 4 h / solubility at 24 h: 37° C.; for solubility at 30 min / solubility at 2 h / solubility at 4 h / solubility at 24 h: 37 °C, thermodynamic from solid, read-out: Solubility (based on a compound of formula I)
Procedure: 4 samples, each of crystal form 1 of a compound of formula I and crystal form D of a phosphate of a compound of formula I each with appropriate amount were weighed and placed into a 4 mL transparent glass bottle respectively, 1 mL of water, simulated gastric fluid (SGF), fasted-state simulated intestinal fluid (FaSSIF) and fed-state simulated intestinal fluid (FeSSIF) were added respectively, sample suspension was obtained and quickly placed on a shaker (37° C., 200 rpm) and the shaker was shaked, the samples were observed 5 minutes later, a quantity of samples or medium were supplemented to obtain mild suspension, samples were taken at 30 minutes, 2 hours, 4 hours and 24 hours, respectively, centrifuged for 10 minutes at 12000 rpm, the supernatants were collected, diluted appropriately and then were tested by a higher performance liquid chromatography.
The sample concentrations were calculated with an external standard method.

[4] = Stability test at high temperature and in accelerated conditions (HPLC purity, XRPD, DSC); details: for Stability study: Crystal form: 2 weeks (XRPD); for 2-week physical and chemical stabilities: high temperature (60° C.) and accelerated conditions (40° C./75% RH), result in words
Procedure: About 1 mg of crystal form 1 of a compound of formula I and 1 mg of crystal form D of a phosphate of a compound of formula I samples were weighed and each was placed into a 40 mL transparent glass bottle, the samples were placed in a stability chamber in accelerated conditions (40° C./75% RH, open) and at a high temperature (60° C., sealed) respectively. For the open samples, the bottle cap was removed and the bottle neck was covered with aluminium-foil paper stabbed with pinholes to avoid cross contamination; for the closed samples, each bottle was covered with a cap and sealed tightly. Samples were taken at week 1 and week 2, respectively, after diluted with diluent (acetonitrile/water (1/1) (v/v), the liquid phases were injected according to the chromatographic conditions in Table 12 to determine sample purities.
The sample purities were calculated with an area normalization method.

thermostability of the crystal form [1]: relatively good | Hygroscopicity: weight gain by moisture absorption ([2]; DVS): 9.4% | Hygroscopicity: weight gain by moisture absorption ([2]; DVS, listed as crystal form B of a sulfate of a compound of formula I): 9.4% | change of crystal form before and after the DVS test [2]: no significant changes
Compound: C[C@@H](O)c1nc2cnc3ccoc3c2n1[C@H]1CC[C@H](CC#N)OC1 [Crystal form B of a sulfate of a compound of formula I] [2-[(2R,5S)-5-[2-[(R)-1-hydroxyethyl]furo[3,2-b]imidazo[4,5-d]pyridin-1-yl]tetrahydropyran-2-yl]acetonitrile]

thermostability of the crystal form [1]: relatively good | difference in the equilibrium solubilities (24 h) between crystal form 1 and crystal form D [3]: no obvious difference | Solubility (based on a compound of formula I) ([3]; Fed-state simulated intestinal fluid (FeSSIF), 30 min): 360 µg/mL | Solubility (based on a compound of formula I) ([3]; Fed-state simulated intestinal fluid (FeSSIF), 2 h): 220 µg/mL | Solubility (based on a compound of formula I) ([3]; Fed-state simulated intestinal fluid (FeSSIF), 4 h): 190 µg/mL | Solubility (based on a compound of formula I) ([3]; Fed-state simulated intestinal fluid (FeSSIF), 24 h): 210 µg/mL | equilibrium solubility (24 h) relative to crystal form 1 of a compound of formula I ([3]; SGF): 2 times | Solubility (based on a compound of formula I) ([3]; Water, 30 min): 1850 µg/mL | Solubility (based on a compound of formula I) ([3]; Water, 2 h): 1780 µg/mL | Solubility (based on a compound of formula I) ([3]; Water, 4 h): 1730 µg/mL | Solubility (based on a compound of formula I) ([3]; Water, 24 h (equilibrium)): 1800 µg/mL | equilibrium solubility (24 h) relative to crystal form 1 of a compound of formula I ([3]; water): 10 times | Hygroscopicity: weight gain by moisture absorption ([2]; DVS): 4.7% | Hygroscopicity: weight gain by moisture absorption ([2]; DVS, listed as crystal form D of a phosphate of a compound of formula I): 4.7% | change of crystal form before and after the DVS test [2]: no significant changes | Stability study (purity) ([4]; 0 day): 99.13 Area % | Stability study (purity) ([4]; 40° C./75% RH, open, 1 week): 99.11 Area % | Stability study (purity) ([4]; 40° C./75% RH, open, 2 weeks): 99.10 Area % | Stability study: Crystal form ([4]; 40° C./75% RH, open): Unchanged | Stability study (purity) ([4]; 60° C., sealed, 1 week): 99.11 Area % | Stability study (purity) ([4]; 60° C., sealed, 2 weeks): 99.11 Area % | Stability study: Crystal form ([4]; 60° C., sealed): Unchanged | 2-week physical and chemical stabilities [4]: good
Compound: C[C@@H](O)c1nc2cnc3ccoc3c2n1[C@H]1CC[C@H](CC#N)OC1 [Crystal form D of a phosphate of a compound of formula I] [2-[(2R,5S)-5-[2-[(R)-1-hydroxyethyl]furo[3,2-b]imidazo[4,5-d]pyridin-1-yl]tetrahydropyran-2-yl]acetonitrile]

solubility at 30 min ([3]; fasted-state simulated intestinal fluid (FaSSIF), fassif, Fasted-state simulated intestinal fluid (FaSSIF), 30 min): 170 µg/mL (≈ 521 µM) | solubility at 2 h ([3]; fasted-state simulated intestinal fluid (FaSSIF), fassif, Fasted-state simulated intestinal fluid (FaSSIF), 2 h): 170 µg/mL (≈ 521 µM) | solubility at 4 h ([3]; fasted-state simulated intestinal fluid (FaSSIF), fassif, Fasted-state simulated intestinal fluid (FaSSIF), 4 h): 170 µg/mL (≈ 521 µM) | solubility at 24 h ([3]; fasted-state simulated intestinal fluid (FaSSIF), fassif, Fasted-state simulated intestinal fluid (FaSSIF), 24 h): 160 µg/mL (≈ 490 µM) | solubility at 30 min ([3]; fed-state simulated intestinal fluid (FeSSIF), fessif, Fed-state simulated intestinal fluid (FeSSIF), 30 min): 260 µg/mL (≈ 797 µM) | solubility at 2 h ([3]; fed-state simulated intestinal fluid (FeSSIF), fessif, Fed-state simulated intestinal fluid (FeSSIF), 2 h): 230 µg/mL (≈ 705 µM) | solubility at 4 h ([3]; fed-state simulated intestinal fluid (FeSSIF), fessif, Fed-state simulated intestinal fluid (FeSSIF), 4 h): 220 µg/mL (≈ 674 µM) | solubility at 24 h ([3]; fed-state simulated intestinal fluid (FeSSIF), fessif, Fed-state simulated intestinal fluid (FeSSIF), 24 h): 240 µg/mL (≈ 735 µM) | solubility at 30 min ([3]; simulated gastric fluid (SGF), simulated gastric fluid, Simulated gastric fluid (SGF), 30 min): 30200 µg/mL (≈ 92600 µM) | solubility at 2 h ([3]; simulated gastric fluid (SGF), simulated gastric fluid, Simulated gastric fluid (SGF), 2 h): 29700 µg/mL (≈ 91100 µM) | solubility at 4 h ([3]; simulated gastric fluid (SGF), simulated gastric fluid, Simulated gastric fluid (SGF), 4 h): 29500 µg/mL (≈ 90300 µM) | solubility at 24 h ([3]; simulated gastric fluid (SGF), simulated gastric fluid, Simulated gastric fluid (SGF), 24 h (equilibrium)): 30200 µg/mL (≈ 92500 µM)
Compound: C[C@@H](O)c1nc2cnc3ccoc3c2n1[C@H]1CC[C@H](CC#N)OC1 [2-[(2R,5S)-5-[2-[(R)-1-hydroxyethyl]furo[3,2-b]imidazo[4,5-d]pyridin-1-yl]tetrahydropyran-2-yl]acetonitrile]

difference in the equilibrium solubilities (24 h) between crystal form 1 and crystal form D [3]: no obvious difference | Solubility (based on a compound of formula I) ([3]; Fasted-state simulated intestinal fluid (FaSSIF), 30 min): 170 µg/mL | Solubility (based on a compound of formula I) ([3]; Fasted-state simulated intestinal fluid (FaSSIF), 2 h, listed as Crytstal form 1 of a compound of formula I): 190 µg/mL | Solubility (based on a compound of formula I) ([3]; Fasted-state simulated intestinal fluid (FaSSIF), 4 h, listed as Crytstal form 1 of a compound of formula I): 160 µg/mL | Solubility (based on a compound of formula I) ([3]; Fasted-state simulated intestinal fluid (FaSSIF), 24 h, listed as Crytstal form 1 of a compound of formula I): 170 µg/mL | Solubility (based on a compound of formula I) ([3]; Simulated gastric fluid (SGF), 30 min, listed as Crytstal form 1 of a compound of formula I): 16520 µg/mL | Solubility (based on a compound of formula I) ([3]; Simulated gastric fluid (SGF), 2 h, listed as Crytstal form 1 of a compound of formula I): 16710 µg/mL | Solubility (based on a compound of formula I) ([3]; Simulated gastric fluid (SGF), 4 h, listed as Crytstal form 1 of a compound of formula I): 16880 µg/mL | Solubility (based on a compound of formula I) ([3]; Simulated gastric fluid (SGF), 24 h (equilibrium), listed as Crytstal form 1 of a compound of formula I): 16420 µg/mL | Solubility (based on a compound of formula I) ([3]; Water, 30 min, listed as Crytstal form 1 of a compound of formula I): 160 µg/mL | Solubility (based on a compound of formula I) ([3]; Water, 2 h, listed as Crytstal form 1 of a compound of formula I): 180 µg/mL | Solubility (based on a compound of formula I) ([3]; Water, 4 h, listed as Crytstal form 1 of a compound of formula I): 160 µg/mL | Solubility (based on a compound of formula I) ([3]; Water, 24 h (equilibrium), listed as Crytstal form 1 of a compound of formula I): 180 µg/mL | Hygroscopicity: weight gain by moisture absorption ([2]; DVS): 5.2% | Hygroscopicity: weight gain by moisture absorption ([2]; DVS, listed as crystal form 1 of a compound of formula I): 5.2% | water remaining after desorption ([2]; DVS, desorption 95% RH to 0% RH): 2% | Stability study (purity) ([4]; 0 day): 98.74 Area % | Stability study (purity) ([4]; 40° C./75% RH, open, 1 week): 98.71 Area % | Stability study (purity) ([4]; 40° C./75% RH, open, 2 weeks): 98.77 Area % | Stability study: Crystal form ([4]; 40° C./75% RH, open): Unchanged | Stability study (purity) ([4]; 60° C., sealed, 1 week): 98.73 Area % | Stability study (purity) ([4]; 60° C., sealed, 2 weeks): 98.74 Area % | Stability study: Crystal form ([4]; 60° C., sealed): Unchanged | 2-week physical and chemical stabilities [4]: good
Compound: C[C@@H](O)c1nc2cnc3ccoc3c2n1[C@H]1CC[C@H](CC#N)OC1 [Crystal form 1 of a compound of formula I] [2-[(2R,5S)-5-[2-[(R)-1-hydroxyethyl]furo[3,2-b]imidazo[4,5-d]pyridin-1-yl]tetrahydropyran-2-yl]acetonitrile]
